Reference: patent publication US6335339B1, “Triazine antiviral compounds” (Scriptgen Pharmaceuticals, Inc., priority 1998, dated 2002)

Experiments:
[1] = system: HIV derived RRE RNA; assay: heterologous hybridization inhibition assay with RRE RNA; format: binding; conditions: radiolabeled RRE RNA, rRNA competitor
Description: Specificity is further tested in a third assay in which the radiolabeled RNA is the HIV derived RRE RNA and the biotinylated oligonucleotide is complementary to RRE. Compounds with high specific activity for εRNA are not expected to be inhibitory in the RRE RNA based assay. The specificity of the ligand for εRNA is expressed as the ratio between the IC50 value obtained with the specific target RNA and the IC50 value obtained with a heterologous target (RRE RNA), both in the presence of competitor RNA.
(§1) Biotinylated oligonucleotides 262.104 A (5′-biotin-TTAGGCACAGCTTGGAGGCTTGAACAGTG-3′) and 208.92 A (5′-biotin-CGTCATTGACGCTGCGCCCA-3′) were synthetically prepared (Oligos Etc., Willsonville, Oreg.). These oligonucleotides are complementary to regions of the εRNA and RRE RNA targets, respectively.
Compounds that inhibited the primary screening assay described above were individually titrated in the same assay at concentrations between 0.1 μM and 200 μM in the absence and presence of 60-fold excess rRNA as a non-specific competitor. A third titration was performed in a heterologous assay using radiolabeled RRE RNA as the target and the complementary biotinylated oligonucleotide 208.92 A. From these three assays, the IC50 values and specificity for each compound was calculated.
IC50 values using rRNA competitor (from Example 1) and radiolabeled RRE RNA are shown in Table 1 for the following ligands. […] Specificity is calculated as the ratio of RRE+rRNA IC50/εRNA+rRNA IC50.

[2] = system: HBV εRNA; assay: εRNA/oligonucleotide hybridization inhibition assay with rRNA competitor; format: binding, Hepatitis B virus; conditions: for IC50: radiolabeled εRNA, 60-fold excess rRNA competitor; for Specificity: ratio RRE+rRNA IC50/εRNA+rRNA IC50, max = inactive in RRE assay
Description: One assay used in determining the activity of the compounds of the present invention is disclosed in copending U.S. patent application Ser. No. 08/709,342, filed Sep. 6, 1996, the disclosure of which is hereby incorporated herein by reference in its entirety. The assay detects the interaction between target RNA molecule and a test ligand by measuring the ligand's ability to inhibit hybridization between the RNA and a specific complementary oligonucleotide. In one embodiment, the target RNA is radiolabelled and the oligonucleotide is labeled with biotin; in this case, the extent of hybridization is determined by measuring the amount of radiolabeled RNA detected with a streptavidin/biotin-based capture system.
Concentrations of test compounds of between about 0.1 μM and about 200 μM are assayed for inhibition using radiolabeled εRNA in the absence or presence of a large excess of an unlabeled non-specific RNA competitor (such as, e.g., ribosomal RNA, rRNA). Compounds that bind εRNA non-specifically are competitively displaced by the rRNA, resulting in reduced or no inhibition of hybridization between the radiolabeled εRNA and the biotinylated oligonucleotide. Conversely, the inhibitory activity of compounds that specifically bind εRNA is not affected by the presence of the competitor rRNA.
The high throughput assays were performed in 96-well plates containing eighty drugs (5 μl, 60 μg/ml in DMSO) distributed one per well in columns 2-6 and 8-12 of the 8×12 96-well array. The remaining 16 wells in columns 1 and 7 were filled with 5 μl DMSO to serve as the control reactions. 45 μl of reaction mixture containing buffer, salts and radiolabeled target RNA were delivered on each well of the compound-containing plates to yield a 50 μl mixture containing 50 mM Tris-HCl, pH 7.5, 200 mM KCl, 5 mM MgCl2, 5 mM DTT, 6 μg/ml test compound, and 25 nM [^32 P]-labeled εRNA. The reaction was started by addition of the biotinylated oligonucleotide, 262.104 A (5 μl) to a final concentration of 100 nM. The reaction was incubated at 25° C. for 60 minutes, and then 5 μl of 0.3 mg/ml SAAP (streptavidin alkaline phosphatase conjugate, Pierce, Rockford, Ill.) was added. The reaction was incubated for an additional 30 minutes at 25° C. and filtered through 96-well format HATF nitrocellulose filters (Millipore, Bedford, Mass.) using a multiscreen vacuum manifold (Millipore, Bedford, Mass.). Subsequently, 300 μl of wash buffer (50 mM Tris-HCl, pH 7.5, 200 mM KCl) was filtered through to wash the filters. The filters were dried and supplemented with 20 μl scintillation fluid (Super Mix, Wallac Oy, Turku, Finland). The amount of hybrids formed was determined by scintillation counting of the radiolabeled εRNA retained on the filters.
The inhibitory effect of a test compound (expressed as percentage of inhibition, % Inh.) was calculated using the following formula: […]
where Ro is the average retention of hybrids in the 16 identical control reactions in columns 1 and 7 and Rx is the hybrids retained in the presence of a test drug, x.
as §1
A plasmid containing the target sequence following the bacteriophage SP6 promoter was used as a template for the synthesis of radiolabeled εRNA using [α^32 P]-UTP and SP6 RNA polymerase as described by the suppliers, e.g., Ambion, Austin, Tex., and by methods well known to those of ordinary skill in the art.
Compounds that inhibited the primary screening assay described above were individually titrated in the same assay at concentrations between 0.1 μM and 200 μM in the absence and presence of 60-fold excess rRNA as a non-specific competitor. […]

C(=NNc1nc(Nc2ccccc2)nc(N2CCCC2)n1)c1c[nH]c2ccccc12 [Compound 89]
IC50 [1]: 75.3 µM | IC50 [2]: 12.5 µM | Specificity [2]: 6.0

O=[N+]([O-])c1ccc(Nc2nc(NN=Cc3cc(Br)ccc3O)nc(N3CCCCCC3)n2)cc1 [Compound 90]
IC50 [1]: 44.9 µM | IC50 [2]: 15 µM | Specificity [2]: 3.0

Cc1[nH]c2ccccc2c1C=NNc1nc(Nc2ccc([N+](=O)[O-])cc2)nc(N2CCCCCC2)n1 [Compound 92]
IC50 [1]: 10.1 µM | IC50 [2]: 2.5 µM | Specificity [2]: 4.0

CN1CCN(c2nc(NN=Cc3cccc(Br)c3)nc(Nc3ccc([N+](=O)[O-])cc3)n2)CC1 [Compound 95]
IC50 [1]: 39 µM | IC50 [2]: 13.7 µM | Specificity [2]: 2.8

O=[N+]([O-])c1ccc(Nc2nc(NN=Cc3c(O)ccc4ccccc34)nc(N3CCOCC3)n2)cc1 [Compound 96]
IC50 [1]: 75 µM | IC50 [2]: 15 µM | Specificity [2]: 5.0

O=[N+]([O-])c1ccc(Nc2nc(NN=Cc3cc(Cl)ccc3O)nc(N3CCOCC3)n2)cc1 [Compound 106]
IC50 [1]: 70.1 µM | IC50 [2]: 12.1 µM | Specificity [2]: 5.8

O=[N+]([O-])c1ccc(Nc2nc(NN=Cc3cc(Br)ccc3O)nc(N3CCOCC3)n2)cc1 [Compound 107]
IC50 [1]: 25 µM | IC50 [2]: 14.9 µM | Specificity [2]: 1.7

O=[N+]([O-])c1ccc(Nc2nc(NN=Cc3cc(I)ccc3O)nc(N3CCCCC3)n2)cc1 [Compound 108]
IC50 [1]: 40 µM | IC50 [2]: 16.1 µM | Specificity [2]: 2.5

Cc1cc(I)cc(C=NNc2nc(Nc3ccc([N+](=O)[O-])cc3)nc(N3CCCCC3)n2)c1O [Compound 109]
IC50 [1]: 35 µM | IC50 [2]: 20 µM | Specificity [2]: 1.8

O=[N+]([O-])c1ccc(Nc2nc(NN=Cc3ccccc3)nc(N3CCOCC3)n2)cc1 [Compound 110]
IC50 [1]: 79.9 µM | IC50 [2]: 20 µM | Specificity [2]: 4.0

O=[N+]([O-])c1ccc(Nc2nc(NN=Cc3ccc(O)cc3)nc(N3CCCCC3)n2)cc1 [Compound 111]
IC50 [1]: 460 µM | IC50 [2]: 23 µM | Specificity [2]: 20.0

Cc1ccccc1Nc1nc(NN=Cc2ccc(-c3ccc([N+](=O)[O-])cc3)o2)nc(Nc2ccc([N+](=O)[O-])cc2)n1 [Compound 112]
IC50 [1]: 751 µM | IC50 [2]: 25 µM | Specificity [2]: 30.0

CCCCN(CCCC)c1nc(NN=Cc2cc3c(cc2Br)OCO3)nc(Nc2ccc([N+](=O)[O-])cc2)n1 [Compound 114]
IC50 [1]: 220 µM | IC50 [2]: 40 µM | Specificity [2]: 5.5

CCN(CC)c1nc(NN=Cc2ccncc2)nc(Nc2ccc([N+](=O)[O-])cc2)n1 [Compound 115]
IC50 [1]: 130 µM | IC50 [2]: 75.1 µM | Specificity [2]: 1.7

O=[N+]([O-])c1ccc(Nc2nc(NN=Cc3cccc(Oc4ccc([N+](=O)[O-])cc4[N+](=O)[O-])c3)nc(N3CCCCCC3)n2)cc1 [Compound 116]
IC50 [1]: 25.1 µM | IC50 [2]: 20 µM | Specificity [2]: 1.3

CC(=NNc1nc(Nc2ccc([N+](=O)[O-])cc2)nc(N2CCOCC2)n1)c1ccc([N+](=O)[O-])cc1 [Compound 118]
IC50 [1]: 50.1 µM | IC50 [2]: 25 µM | Specificity [2]: 2.0

Oc1ccc(C=NNc2nc(Nc3ccccc3)nc(N3CCCC3)n2)c(O)c1 [Compound 119]
IC50 [1]: 250 µM | IC50 [2]: 35 µM | Specificity [2]: 7.1

O=[N+]([O-])c1ccc(Nc2nc(NN=Cc3ccccc3I)nc(N3CCCCC3)n2)cc1 [Compound 124]
IC50 [1]: 300 µM | IC50 [2]: 29.9 µM | Specificity [2]: 10.0

COc1ccc(C=NNc2nc(Nc3ccccc3)nc(Nc3ccc(C)cc3C)n2)cc1 [Compound 126]
IC50 [1]: 500 µM | IC50 [2]: 60.1 µM | Specificity [2]: 8.3

Clc1ccccc1C=NNc1nc(Nc2ccccc2)nc(N2CCCC2)n1 [Compound 127]
IC50 [1]: 80 µM | IC50 [2]: 80 µM | Specificity [2]: 1.0

Cc1[nH]c2ccccc2c1C=NNc1nc(Nc2ccc([N+](=O)[O-])cc2)nc(N2CCOCC2)n1 [Compound 128]
IC50 [1]: 99.9 µM | IC50 [2]: 22 µM | Specificity [2]: 4.5

CCOc1ccc(C=NNc2nc(Nc3ccc([N+](=O)[O-])cc3)nc(N3CCCCC3)n2)cc1O [Compound 129]
IC50 [1]: 120 µM | IC50 [2]: 25 µM | Specificity [2]: 4.8

O=C1Nc2ccccc2C1=NNc1nc(Nc2ccc([N+](=O)[O-])cc2)nc(N2CCOCC2)n1 [Compound 130]
IC50 [1]: 400 µM | IC50 [2]: 32.9 µM | Specificity [2]: 12.2

O=C(C(=NNc1nc(NCc2ccccc2)nc(Nc2ccc([N+](=O)[O-])cc2)n1)c1ccccc1)c1ccccc1 [Compound 131]
IC50 [1]: 36.7 µM | IC50 [2]: 36.7 µM | Specificity [2]: 1.0

CCN(CC)c1nc(NN=CC=Cc2ccccc2)nc(Nc2ccc([N+](=O)[O-])cc2)n1 [Compound 132]
IC50 [1]: 800 µM | IC50 [2]: 70.1 µM | Specificity [2]: 11.4

Cc1[nH]c2ccccc2c1C=NNc1nc(NCc2ccccc2)nc(N2CCOCC2)n1 [Compound 142]
IC50 [1]: 1130 µM | IC50 [2]: 226 µM | Specificity [2]: 5.0

COc1ccc([N+](=O)[O-])cc1C=NNc1nc(Nc2ccccc2)nc(N2CCCCC2)n1 [Compound 143]
IC50 [1]: 223 µM | IC50 [2]: 446 µM | Specificity [2]: 0.5

O=[N+]([O-])c1ccc(Nc2nc(NN=Cc3ccc(-c4ccc([N+](=O)[O-])cc4)o3)nc(Nc3ccccc3)n2)cc1 [Compound 144]
IC50 [1]: 99.9 µM | IC50 [2]: 1000 µM | Specificity [2]: 0.1

CC(=NNc1nc(Nc2ccc([N+](=O)[O-])cc2)nc(N2CCCCC2)n1)c1ccccc1 [Compound 151]
IC50 [1]: 700 µM | IC50 [2]: 200 µM | Specificity [2]: 3.5

O=[N+]([O-])c1ccc(Nc2nc(NN=Cc3ccc(O)c([N+](=O)[O-])c3)nc(N3CCOCC3)n2)cc1 [Compound 152]
IC50 [1]: 150 µM | IC50 [2]: 300 µM | Specificity [2]: 0.5

O=C1Nc2ccccc2C1=NNc1nc(Nc2ccc([N+](=O)[O-])cc2)nc(N2CCCCC2)n1 [Compound 153]
IC50 [1]: 500 µM | IC50 [2]: 500 µM | Specificity [2]: 1.0

CCCCN(CCCC)c1nc(NN=Cc2ccc(C=NNc3nc(Nc4ccc([N+](=O)[O-])cc4)nc(N(CCCC)CCCC)n3)cc2)nc(Nc2ccc([N+](=O)[O-])cc2)n1 [Compound 154]
IC50 [1]: 300 µM | IC50 [2]: 1180 µM | Specificity [2]: 0.3
